Among the data in PubChem BioAssay AID2387 (Broad Institute, 2010) are EC50 values, retold here.

Where “and” joins values, the source holds several entries; their conditions need not be identical. Equal values may be shown once. Calls of active or inactive are those of the source.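 The calls were made as follows: active = fitted EC50 no more than tenfold above the highest tested concentration; inconclusive = flat fit with 30 to 70% signal loss, or poor fit; inactive = the rest.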 Some results are limits rather than exact numbers.

The test system of the experiment is Candida albicans CaCi-2 growth (no fluconazole), Alamar Blue. The experiment is described as follows: C. albicans growth inhibition without fluconazole, dose response, counter-screen for fluconazole resistance reversal project, CaCi-2 strain, Alamar Blue fluorescence (AID 2387). The note with it: C. albicans CaCi-2 (fluconazole-resistant clinical isolate) growth without fluconazole, 48 h. In general terms: A counterscreen serves to expose hits that act by an unwanted route or on another target.
For orientation: EC50 means the midpoint of the concentration-response curve. For `C[n+]1c2n(c3ccccc31)N=C(c1ccc(-c3ccccc3)cc1)CS2`, the EC50 was > 16 µM (inactive).
The result for `CCn1c(Sc2nc(C)nc3scc(-c4cccs4)c23)n[nH]c1=O` reads > 16 µM (inactive).
Take `NC(=NCCCCCCN=C(N)/N=C(\N)Nc1ccc(Cl)cc1)/N=C(\N)Nc1ccc(Cl)cc1`: the EC50 was > 16 µM (inactive) and > 15 µM (inactive).
Regarding `CCOc1ccc(N=Nc2ccc(O)c3ncccc23)cc1`, the EC50 was 2.3 µM.
The result for `O=C(CNc1ccc2ccccc2c1)N/N=C/c1ccc([N+](=O)[O-])o1` reads > 16 µM (inactive).
As for `COc1ccc(-c2nnc(NC(=O)c3ccc(S(=O)(=O)N4CCc5ccccc5C4)cc3)o2)cc1`, the figure is > 15 µM (inactive); as for `Cc1c(OCC(=O)NCC(O)c2ccccc2)ccc2c(-c3ccccc3)cc(=O)oc12` (centres undefined), > 16 µM (inactive); as for `C=CCc1c(C)c(C#N)c2nc3ccccc3n2c1NCCN(C)C`, > 15 µM (inactive).
The result for `CN(C)S(=O)(=O)Oc1cccc(C(=O)Nc2cccc(Cl)c2)c1` reads > 15 µM (inactive); that for `CCc1cc(-c2n[nH]c(=S)n2-c2ccccc2C)cs1`, > 16 µM (inactive).
As for `Oc1ccc(N=Nc2ccc3c(c2)OCCO3)c2ncccc12`, the half-maximal effective concentration (EC50) was 3.31 µM.
As to `CCCCCCC[n+]1ccc(-c2cc[n+](CCCCCCC)cc2)cc1`, the EC50 was 1.68 µM.
The result for `COc1ccc(-n2c(=O)c3c4c(sc3n3c(=S)[nH]nc23)CCCC4)cc1` reads > 16 µM (inactive); that for `Oc1c(C(c2ccccc2Cl)N2CCCC2)ccc2cccnc12` (centres undefined), 14.3 µM.
Turning to `CCc1nnc(NC(=O)CSc2nc(SC)ns2)s1`, the EC50 is > 16 µM (inactive).
As for `[O-][n+]1cccc2c(Br)cc(Br)c(O)c21`, the figure is 16.4 µM; as for `CCCn1nnnc1NC(=O)c1ccc2ccccc2c1`, > 15 µM (inactive).
As for `O=C(c1ccc(Cl)cc1)N1CCN(c2ccnc3cc(Cl)ccc23)CC1`, the figure is > 15 µM (inactive); as for `Clc1ccccc1C(c1ccccc1)(c1ccccc1)n1ccnc1`, 1.58 µM; as for `CCc1ccc2c(c1)/C(=C/C(=O)c1cccs1)C(=O)N2`, > 15 µM (inactive).
As for `Nc1nonc1-n1nnc(C(=O)N/N=C/c2cc(Cl)ccc2O)c1CN1CCCCCC1`, the figure is > 15 µM (inactive).
For `O=[N+]([O-])c1ccc(O)c(P(=O)(c2ccccc2)c2ccccc2)c1`, the EC50 is > 15 µM (inactive).
`CCOc1ccccc1NC(=O)C(=O)N/N=C/c1cc(Br)ccc1O`: the EC50 is > 16 µM (inactive).
The result for `C=CCNC(=S)N/N=C(\C)c1ccccn1` reads 4.96 µM.
As for `Cc1cccc(C(=O)CC(=O)c2cc(Cl)ccc2O)c1`, the figure is > 15 µM (inactive).
On to `CC[n+]1c(/C=C2\Sc3ccccc3N2C)ccc2cccc(C)c21`, for which the EC50 was 2.43 µM.
As for `CCc1cc(C(=O)NC2CCCc3c2cnn3-c2cccc(C)c2C)n(C)n1` (centres undefined), the figure is > 15 µM (inactive).
As for `CCCCCCSc1nnc2[nH]c(=O)cc(N)n12`, the figure is > 15 µM (inactive).
`O=C(Cc1nc2ccccc2s1)c1ccc(O)cc1O`: the EC50 was > 16 µM (inactive).
For `COCCn1c(=O)[nH]c(=O)c2cc(C(=O)c3cc(Cl)ccc3O)cnc21`, the EC50 is > 16 µM (inactive).
The result for `O=C(Nc1nnc(-c2ccc(F)cc2)o1)c1cccc([N+](=O)[O-])c1` reads > 15 µM (inactive); that for `CC(=O)NC(c1ccc(C)cc1)c1cc([N+](=O)[O-])c2cccnc2c1O` (centres undefined), > 16 µM (inactive).
As for `CN1CCN(C(c2ccc(C(F)(F)F)cc2)c2cc(Cl)c3cccnc3c2O)CC1` (centres undefined), the figure is 2.45 µM; as for `Cc1nn(-c2ccccc2)c(Cl)c1/C=C/C(=O)c1ccc(O)cc1`, > 16 µM (inactive).
As for `O=C1CS/C(=N\C(=O)N2c3ccccc3Sc3ccccc32)N1`, the figure is > 15 µM (inactive).
As to `Cn1c(N2CCOCC2)c(/C=N/OC(=O)c2ccc(F)cc2)c2ccccc21`, the EC50 was > 16 µM (inactive).
With `CCCC(=O)NC(c1ccc(C)cc1)c1ccc2cccnc2c1O` (centres undefined), the EC50 was > 15 µM (inactive).
Take `Oc1c(Br)cc(Br)cc1/C=N/Nc1ccc(Cl)nn1`: the EC50 is > 16 µM (inactive).
The result for `Oc1ccc2ccccc2c1/C=N/Nc1nnc(-c2ncc[nH]2)c2ccccc12` reads > 15 µM (inactive); that for `Cc1c(Cl)ccc2c1NC(=O)[C@]21N[C@@H](Cc2ccccc2)[C@H]2C(=O)N(c3ccc(F)cc3)C(=O)[C@H]21`, > 16 µM (inactive).
As for `CCOc1ccc(NC(=S)NNC(=O)c2ccc(Br)cc2)cc1`, the figure is > 16 µM (inactive); as for `O=C(Nc1nc(-c2ccccn2)cs1)c1ccc(Br)s1`, 10.2 µM; as for `CCN1/C(=C/C(C)=C/c2sc3ccccc3[n+]2CC)Sc2ccccc21`, 2.38 µM.
As for `CC(C)(C)c1ccc(OCCCC(=O)NNC(=O)c2ccccc2O)cc1`, the figure is > 16 µM (inactive); as for `Cc1cc(NC(c2ccc(Cl)cc2)c2ccc3cccnc3c2O)no1` (centres undefined), 3.53 µM; as for `CCOc1ccc(NC(=O)c2cn(-c3ccc(OCC)cc3)c(=O)c3cc(OC)c(OC)cc23)cc1`, > 16 µM (inactive).
Turning to `CC/C(=N/NC(=O)c1ccccc1O)c1c(C)[nH]n(-c2ccccc2)c1=O`, the EC50 was > 15 µM (inactive).
The result for `O=C(c1cc2ccccc2cc1O)N1CCN(c2ccccc2O)CC1` reads > 15 µM (inactive).
As for `CN(C)S(=O)(=O)Oc1cccc(C(=O)Nc2ccc(Cl)c(Cl)c2)c1`, the figure is > 15 µM (inactive); as for `Cc1ccc2ccc3ccc(C)nc3c2n1`, > 15 µM (inactive).
As for `O=C(N/N=C/c1cc([N+](=O)[O-])ccc1O)c1ccc(COc2ccc3c(c2)CCC3)o1`, the figure is 12.3 µM; as for `O=C(NNC(=S)Nc1ccc(Cl)c(Cl)c1)c1ccccn1`, 11.3 µM; as for `Cc1cccc2sc(NNC(=O)c3cc(-c4cccs4)nc4ccccc34)nc12`, > 16 µM (inactive).
As to `COc1ccc(C)cc1N=Nc1ccc(O)c2ncccc12`, the EC50 is 2.77 µM.
Turning to `Oc1c(C(Nc2nccs2)c2ccc(C(F)(F)F)cc2)ccc2cccnc12` (centres undefined), the EC50 is 4.35 µM.
For `O=C(NCc1ccccc1)c1sc(=S)n2c1[nH]c(=O)c1ccccc12`, the EC50 was > 15 µM (inactive).
As for `Cc1nn(-c2ccccc2)c(C)c1C(=O)OC/C(O)=C(\C#N)c1nc2ccccc2[nH]1`, the figure is > 15 µM (inactive); as for `O=C(O)c1ccccc1-c1ccccc1C(=O)Nc1cccc(-c2nc3ccccc3o2)c1`, > 15 µM (inactive).
The result for `CCCC(=O)NC(c1cccs1)c1cc(Cl)c2cccnc2c1O` (centres undefined) reads 12 µM; that for `Cc1cc(N/N=C/c2c(O)ccc3ccccc23)nc(-c2ccccc2O)n1`, > 16 µM (inactive); that for `COc1ccccc1NC1=C(N2CCCCC2)C(=O)c2ccccc2C1=O`, > 16 µM (inactive).
As for `O=C(CCc1ccccc1)NNC(=S)NC(=O)c1ccccc1`, the figure is > 15 µM (inactive); as for `Cc1ccc2nc(/C(C#N)=C\c3ccc(OC(=O)c4cccs4)cc3)[nH]c2c1`, > 16 µM (inactive); as for `CCCCCCc1c(C)nc(-n2[nH]c(C)c(CCO)c2=O)[nH]c1=O`, > 16 µM (inactive).
On to `CCc1cc(C(=O)NNC(=S)Nc2cc(C)ccc2C)cs1`, for which the EC50 is > 15 µM (inactive).
As for `COc1ccc(C2C(C#N)=C(N)Oc3c2ccc2cccnc32)cc1OC` (centres undefined), the figure is > 15 µM (inactive); as for `CCCC(=O)NC(c1ccc(N(C)C)cc1)c1ccc2cccnc2c1O` (centres undefined), > 16 µM (inactive).
As for `CCCC(=O)NC(c1ccc(OC)cc1)c1ccc2cccnc2c1O` (centres undefined), the figure is > 16 µM (inactive).
As to `COc1cccc(-c2nc(NC(C)C)c3ccccc3n2)c1O`, the EC50 was > 16 µM (inactive).
The result for `CC1(C)COCN1S(=O)(=O)c1ccc(C(=O)Nc2nnc(-c3ccc(Cl)s3)o2)cc1` reads > 16 µM (inactive); that for `Cc1ccc(C)c(S(=O)(=O)N2CCN(Cc3ccc(O)c4ncccc34)CC2)c1`, > 16 µM (inactive).
As for `C/C(=N\NC(=O)c1cc(C2CC2)nc2ccccc12)c1ccc(O)cc1O`, the figure is > 16 µM (inactive).
As for `COc1ccc(C(=O)NC(=S)NNC(=O)c2ccc(C)cc2)cc1`, the figure is > 15 µM (inactive).
Turning to `CS/C(=N\S(=O)(=O)c1cccs1)Nc1ccc(Br)cc1F`, the EC50 was > 15 µM (inactive).
In the case of `Oc1c(CN2CCN(c3ccc(F)cc3)CC2)cc(Cl)c2cccnc12`, the 50% effective concentration (EC50) is 2.74 µM.
`Cc1ccc(/C=C/C(=O)c2ccccc(=O)c2O)cc1C`: the EC50 is 13 µM.
The result for `CCc1ccc(C2c3[nH]c4ccccc4c3CCN2C(=O)c2ccc(=O)n(C)n2)cc1` (centres undefined) reads > 16 µM (inactive); that for `O=C(c1ccc(Cn2c(=O)[nH]c3ccccc3c2=O)cc1)N1CCN(c2ccc(F)cc2)CC1`, > 15 µM (inactive); that for `Cc1cc(O)ccc1NC(=S)NC(=O)c1cncc(Br)c1`, > 16 µM (inactive).
As to `Cc1ccc(NC(=O)c2sc3nc(N)c(C#N)cc3c2N)cc1`, the EC50 was > 15 µM (inactive).
The result for `CC(C)CCN1C(=O)c2ccc(C(=O)Nc3ccc(Br)cc3C(=O)O)cc2C1=O` reads > 16 µM (inactive); that for `Cc1ccc(C(=O)c2coc3c2C(=O)C(=O)c2ccccc2-3)cc1`, 10.7 µM; that for `[O-][N+]1=c2ccc(Nc3ccccc3)cc2=NC12CCCCC2`, > 15 µM (inactive).
For `COc1cc2c(cc1NC(=O)c1ccco1)CCCC2`, the EC50 is > 15 µM (inactive).
As for `Cc1ccc(NC2=CC(=O)C(=O)c3ccccc32)cc1`, the figure is > 15 µM (inactive); as for `CCCCCCCNC(=O)COc1ccc2c(c1)C(=O)CC(C)(C)O2`, > 16 µM (inactive).
The result for `O=C(Nc1nc2ccc(SC(F)F)cc2s1)c1ccc(NS(=O)(=O)c2ccc(F)c(F)c2)cc1` reads > 15 µM (inactive).
As for `COc1ccc(-n2nc(C(=O)NCC(=O)N3CCN(c4ccccc4)CC3)c3ccccc3c2=O)c(OC)c1`, the figure is > 16 µM (inactive); as for `CCN(Cc1ccccc1)S(=O)(=O)c1ccc(C(=O)Nc2nnc(-c3ccccc3OC)o2)cc1`, > 15 µM (inactive).
